In PubChem BioAssay (NCI):
Several values for one entry are separate records, joined by “and”; a condition that tells them apart may be missing. Equal values may be shown once.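 Five compound concentrations were applied to cells in 96-well plates for 48 hours; endpoints were derived by simple linear interpolation of the resulting dose-response curve. GI50 = concentration required for 50% inhibition of growth. TGI: total growth inhibition.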

Tested on: MDA-MB-468 breast
Assay: inhibition of tumour cell growth, NCI panel, 48 h

SMILES	GI50	TGI [µM]
CCN1CCN(c2ccc(Nc3ncc4ccc5ncn(C(C)C)c5c4n3)nc2)CC1	0.177 µM	0.444
O=C(NCCCCCCNC(=O)OCc1ccc2c(Cl)cc(Cl)c(O)c2n1)OCc1ccc2c(Cl)cc(Cl)c(O)c2n1	0.59 µM	2.14
C=C(C)[C@@H]1CC[C@]2(C(N)=O)CC[C@]3(C)[C@H](CC[C@@H]4[C@@]5(C)C/C(=C/c6cccnc6)[C@H](O)C(C)(C)[C@@H]5CC[C@]43C)[C@@H]12	4.05 µM	> 100
CC(CN)[C@@H]1CC[C@]2(CO)CC[C@]3(C)[C@H](CC[C@@H]4[C@@]5(C)CCC(N)C(C)(C)[C@@H]5CC[C@]43C)[C@@H]12 (stereo not given in full)	1.59 µM	3.25
Cc1cc2nc(C(Cl)Cl)nc(-c3ccccc3)n2n1	1.81 µM	4.45
COc1ccc2nc(-c3cc4c([nH]c5ccccc54)c(-c4ccc(F)c(F)c4)n3)[nH]c2c1	1.7 µM	3.92
COc1cnc2c(c1)C(=O)c1c-2n(CCCNC(C)C)c(=O)c2cc([N+](=O)[O-])ccc12	0.0206 µM	0.0603
CNC(=O)CN1CCC(Oc2cc3c(Nc4cccc(Cl)c4F)ncnc3cc2OC)CC1	< 0.01 µM and 0.00403 µM	
N#Cc1nn(-c2cc(=O)[nH]c3ccc(Br)cc23)c(N)c1C#N	> 100 µM	> 100
CC#CC(=O)N1CC[C@@H](n2c(=O)n(-c3ccc(Oc4ccccc4)cc3)c3c(N)ncnc32)C1	10.5 µM	60.2
O=[N+]([O-])c1cc2c(c([N+](=O)[O-])c1)Nc1ccccc1O2	2.14 µM	9.84
Nc1c2ccccc2nc2ccccc12 (tested in a mixture with another compound)	1.07 µM	3.21
CN1CCN(CC(=O)N2c3cccc4cccc(c34)N(C(=O)CN3CCN(C)CC3)C2c2cn(-c3ccccc3)nc2-c2cccc([N+](=O)[O-])c2)CC1	1.61 µM	3.06
Oc1ccc(-c2nnc(SCc3ccc(O)c4ncccc34)n2-c2ccccc2)cc1	0.421 µM	2.83
CCN(CC)CC[n+]1cc2cc(OC)c(OC)cc2c2ccc3cc4c(cc3c21)OCO4	0.241 µM	1.09
COc1cc(C)c(NC(=O)CN(C)C)cc1Nc1nc(Nc2cccc(F)c2C(N)=O)c2cc[nH]c2n1	0.263 µM	1.21
Cc1nc2sc(C(=O)Nc3cccc(Br)c3)c(N)c2cc1C(O)c1ccccc1 (stereo not given)	0.38 µM	10.2

SMILES	GI50	TGI [µM]
COc1ccc(C2CC(=O)c3c(O)c(OC)c(OC)c(OC)c3O2)cc1O (stereo not given)	1.51 µM	> 100
Oc1c(CN2CCN(c3ccccc3F)CC2)cc(Br)c2cccnc12	0.673 µM	6.84
Clc1ccc2c(NCCNc3nc(N4CCCC4)nc4ccccc34)ccnc2c1	1.2 µM	3.43
C=CCSSc1ncnc2c1ncn2C1OC(CO)C(O)C1O (stereo not given)	0.217 µM	4.46
O=S(=O)(Nc1ccccn1)c1ccc(N=Nc2ccc(O)c3ncccc23)cc1	2.23 µM	8.44
Cc1ccc(C2=NN(c3ccc(S(N)(=O)=O)cc3)C(c3cn(-c4ccccc4)nc3-c3ccccc3)C2)cc1 (stereo not given)	24.3 µM	> 100
O=c1cc(-c2cccc(OCc3ccccc3)c2)[nH]c2cc3c(cc12)OCO3	9.59 µM	> 100
COc1cc(N2CCC(N3CCN(C)CC3)CC2)ccc1Nc1ncc(Cl)c(Nc2ccccc2S(=O)(=O)C(C)C)n1	0.483 µM	1.78
Fc1cccc(-c2[nH]nc3nc(Nc4cccnc4)sc23)c1	0.36 µM	3
C=C1C(=O)O[C@H]2[C@H]1CC/C(COC(=O)NCc1cc(OC)cc(OC)c1)=C\CC[C@@]1(C)O[C@@H]21	0.58 µM	2.33
C[C@@H]1OCC2(CCN(c3cnc(Sc4ccnc(N)c4Cl)c(N)n3)CC2)[C@@H]1N	14.8 µM	> 100
COc1ccc2nc3ccccc3c(NCc3ccc(C)cc3)c2c1	1.81 µM	3.92
C/C(=C\c1ccn(-c2ccc(N)cc2F)n1)[C@@H]1C[C@@H]2O[C@]2(C)CCC[C@H](C)[C@H](O)[C@@H](C)C(=O)C(C)(C)[C@@H](O)CC(=O)O1	0.0263 µM	0.3
O=C(O)c1ccccc1Nc1ccc2nnc(-c3ccncc3)n2n1	1.96 µM	4.59
Cc1nn(C)c2cc(N(C)c3ccnc(Nc4cccc(S(N)(=O)=O)c4)n3)ccc12	4.19 µM	13.7
Oc1c(I)cc(I)cc1CN(Cc1ccccn1)Cc1ccccn1	1.31 µM	7.28
